Earlier results on 15 compounds are cited in US20240397942A1, “METHOD FOR PRODUCING REPELLENT OR ATTRACTANT FOR ORGANISMS, REPELLENT OR ATTRACTANT FOR ORGANISMS, AND METHOD FOR REPELLING OR ATTRACTING ORGANISMS” (Sony Group Corporation, priority 2021, published 2024).

Holding throughout (details): in vivo
For data set [1], the system named is flour beetles.
Data set [2] relates to Mexican bean beetles.
The test system of data set [3] is whiteflies (infection vector of tomato yellowing gangrene virus).
The subject of data set [4] is house dust mites (indoor mites).
The test system of data set [5] is peach-potato aphids.
Data set [6] concerns fruit flies.
The test system of data set [7] is Asian tiger mosquitoes.
In data set [8] the test system is giant assassin bugs.
In data set [9] the test system is sirex woodwasps.
Data set [10] deals with plant hoppers (rice pests).
For data set [11], the system named is stink bugs.
In data set [12] the test system is spider mites.
Data set [13] has as its system organisms.
In data set [14] the test system is malaria mosquitoes.
The test system of data set [15] is green tea leafhoppers.

On to `C=CCCCCCCCCCCCC` [1-tetradecene], for which, in [1], the “repellent effect on flour beetles” value is “repellent effect”. Also, the “repellent effect on Mexican bean beetles” value in data set [2] is “repellent effect”.

With `CCCCC(CC)CO` (stereo not shown) [2-ethyl-1-hexanol], the “attractant effect on whiteflies” value in [3] is on record as “attractant effect”.

On to `CCCCCCCCCC=O` [Example 1-decanal, 1-decanal], for which the “attractant effect on house dust mites (indoor mites)” value in data set [4] is on record as “attractant effect”.

With `CCCCCC=O` [Example 1-hexanal, 1-hexanal], the “attractant effect on peach-potato aphids” value in data set [5] is listed as “attractant effect”.

Consider `CCCCCCCC=O` [Example 1-octanal, 1-octanal], for which the “attractant effect on house dust mites (indoor mites)” value in [4] is “attractant effect”.

`CC=O` [acetaldehyde]: the “attractive (attractant) effect on fruit flies” value in [6] is “attractant effect”.

As for `CC(=O)O` [acetic acid], the “attractant effect on Asian tiger mosquitoes” value in [7] is listed as “attractant effect”.

Consider `CC(=O)c1ccccc1` [acetophenone], for which the “repellent effect on giant assassin bugs” value in data set [8] was “repellent effect”. In data set [9], the “repellent effect on sirex woodwasps” value is “repellent effect”. Also, the “attractive effect on plant hoppers (rice pests)” value in data set [10] was “attractive effect”. In addition, the “attractive effect on stink bugs” value in [11] is listed as “attractive effect”.

`CC(=O)CC(C)=O` [acetylacetone]: the “repellent effect on sirex woodwasps” value in data set [9] is “repellent effect”.

On to `O=Cc1ccccc1` [benzaldehyde], for which, in [6], the “attractive (attractant) effect on fruit flies” value was “attractive effect”.

For `CCCCCCCCCCCCCCCC` [hexadecane], in data set [12], the “repellent effect on spider mites” value is reported as “repellent effect”.

As for `C=Cc1ccccc1` [styrene], in [13], the “repellent or attractant effect on organisms” value is “no repellent or attractant effect”.

On to `CCCCCCCCCCCCCC` [tetradodecane], for which, in [14], the “repellent effect on malaria mosquitoes” value is reported as “repellent effect”.

Consider hexadecene, for which, in [15], the “repellent effect on green tea leafhoppers” value is “repellent effect”.

Take xylene: the “repellent effect on whiteflies” value in data set [3] was “repellent effect”.
